Each molecule was assayed against T1, RANTES/MIP-1α chemokine receptor (CCR1) in THP-1 cell membranes (Homo sapiens, UniProt P32246) (assay: Receptor binding assay: 125I-RANTES or 125I-MIP-1α binding to THP-1 cell membranes). Conditions: inhibitor concentration required for 50% inhibition of specific binding; 125I-RANTES or 125I-MIP-1α as ligand, THP-1 cell membranes; read-out: IC50.
T1 construct: Membranes were prepared from THP-1 cells (ATCC #TIB202); host or cells: THP-1 cells (membrane preparation)
T1 sequence (P32246 1-355): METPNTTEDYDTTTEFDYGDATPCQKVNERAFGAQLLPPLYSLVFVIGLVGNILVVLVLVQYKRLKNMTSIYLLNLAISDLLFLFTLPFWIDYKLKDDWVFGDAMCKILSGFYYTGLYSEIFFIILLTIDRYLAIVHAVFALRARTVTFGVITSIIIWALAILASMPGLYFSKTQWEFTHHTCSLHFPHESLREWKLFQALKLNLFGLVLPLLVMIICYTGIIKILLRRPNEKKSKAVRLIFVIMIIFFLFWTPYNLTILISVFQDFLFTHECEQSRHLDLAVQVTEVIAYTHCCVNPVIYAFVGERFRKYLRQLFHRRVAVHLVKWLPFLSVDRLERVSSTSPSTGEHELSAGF
Protocol: Membranes were prepared from THP-1 cells (ATCC #TIB202). Cells were harvested by centrifugation, washed twice with PBS (phosphate-buffered saline), and the cell pellets were frozen at −70 to −85° C. The frozen pellet was thawed in ice-cold lysis buffer consisting of 5 mM HEPES (N-2-hydroxyethylpiperazine-N′-2-ethane-sulfonic acid) pH 7.5, 2 mM EDTA (ethylenediaminetetraacetic acid), 5 μg/ml each aprotinin, leupeptin, and chymostatin (protease inhibitors), and 100 μg/ml PMSF (phenyl methane sulfonyl fluoride—also a protease inhibitor), at a concentration of 1 to 5×10^7 cells/ml. This procedure results in cell lysis. The suspension was mixed well to resuspend all of the frozen cell pellet. Nuclei and cell debris were removed by centrifugation of 400×g for 10 minutes at 4° C. The supernatant was transferred to a fresh tube and the membrane fragments were collected by centrifugation at 25,000×g for 30 minutes at 4° C. The supernatant was aspirated and the pellet was resuspended in freezing buffer consisting of 10 mM HEPES pH 7.5, 300 mM sucrose, 1 μg/ml each aprotinin, leupeptin, and chymostatin, and 10 μg/ml PMSF (approximately 0.1 ml per each 10^8 cells). All clumps were resolved using a minihomogenizer, and the total protein concentration was determined using a protein assay kit (Bio-Rad, Hercules, Calif., cat #500-0002). The membrane solution was then aliquoted and frozen at −70 to −85° C. until needed.
Binding Assays utilized the membranes described above. […] The binding reactions were performed in 60 to 100 μl of a binding buffer consisting of 10 mM HEPES pH 7.2, 1 mM CaCl2, 5 mM MgCl2, and 0.5% BSA (bovine serum albumin), for 60 min at room temperature. The binding reactions were terminated by harvesting the membranes by rapid filtration through glass fiber filters (GF/B or GF/C, Packard) which were presoaked in 0.3% polyethyleneimine. The filters were rinsed with approximately 600 μl of binding buffer containing 0.5 M NaCl, dried, and the amount of bound radioactivity was determined by scintillation counting in a Topcount beta-plate counter.
Specific binding is defined as the total binding minus the non-specific binding; non-specific binding is the amount of cpm still detected in the presence of excess unlabeled Rantes or MIP-1α.

Row | Molecule | IC50 [µM]
1 | 4-(4-Chlorophenyl)-1-[3-(5,11-dihydro-7-methylaminocarbonylmethyloxy[1]benzoxepino[2,3-b]pyridin-5-ylidene)propyl]piperidin-4-ol [Example 182] | < 1
2 | 4-(4-Chlorophenyl)-1-[3-(5,11-dihydro-7-morpholinocarbonylmethyloxy[1]benzoxepino[2,3-b]pyridin-5-ylidene)propyl]piperidin-4-ol [Example 135] | < 1
3 | 4-(4-Chlorophenyl)-1-[3-(5,11-dihydro-7-phenyl[1]benzoxepino[2,3-b]pyridin-5-ylidene)propyl]piperidin-4-ol [Example 291] | < 1
4 | 4-(4-Chlorophenyl)-1-[3-(5,11-dihydro-7-propargyloxy[1]benzoxepino [2,3-b]pyridin-5-ylidene)propyl]piperidin-4-ol [Example 173] | < 1
5 | 4-(4-Chlorophenyl)-1-[3-(5,11-dihydro-7-propoxy[1]benzoxepino[2,3-b]pyridin-5-ylidene)propyl]piperidin-4-ol [Example 128] | < 1
6 | 4-(4-Chlorophenyl)-1-[3-(5,11-dihydro-8-methoxy[1]benzoxepino[2,3-b]pyridin-5-ylidene)propyl]piperidin-4-ol [Example 114] | < 1
7 | 4-(4-Chlorophenyl)-1-[3-(5,11-dihydro-9-methoxy[1]benzoxepino[2,3-b]pyridin-5-ylidene)propyl]piperidin-4-ol [Example 166] | < 10
8 | 4-(4-Chlorophenyl)-1-[3-(5,11-dihydro[1]benzothiepino[2,3-b]pyridin-5-ylidene)propyl]piperidin-4-ol [Example 111] | < 1
9 | 4-(4-Chlorophenyl)-1-[3-(7-(2-ethoxycarboxy)ethyl-5,11-dihydro[1]benzoxepino[2,3-b]pyridin-5-ylidene)propyl]piperidin-4-ol [Example 288] | < 1
10 | 4-(4-Chlorophenyl)-1-[3-(7-(2-furyl)-5,11-dihydro[1]benzoxepino[2,3-b]pyridin-5-ylidene)propyl]piperidin-4-ol [Example 292] | < 1
11 | 4-(4-Chlorophenyl)-1-[3-(7-carboxymethyl-5,11-dihydro[1]benzoxepino[2,3-b]pyridin-5-ylidene)propyl]piperidin-4-ol [Example 120] | < 1
12 | 4-(4-Chlorophenyl)-1-[3-(7-cyanomethyloxy-5,11-dihydro[1]benzoxepino[2,3-b]pyridin-5-ylidene)propyl]piperidin-4-ol [Example 49] | < 1
13 | 4-(4-Chlorophenyl)-1-[3-(7-cyclopentoxy-5,11-dihydro[1]benzoxepino[2,3-b]pyridin-5-ylidene)propyl]piperidin-4-ol [Example 174] | < 1
14 | 4-(4-Chlorophenyl)-1-[3-(7-cyclopropylmethyloxy-5,11-dihydro [1]benzoxepino[2,3-b]pyridin-5-ylidene)propyl]piperidin-4-ol [Example 130] | < 1
15 | 4-(4-Chlorophenyl)-1-[3-(7-diethylaminocarbonyl-5,11-dihydro[1]benzoxepino[2,3-b]pyridin-5-ylidene)propyl]piperidin-4-ol [Example 270] | < 1
16 | 4-(4-Chlorophenyl)-1-[3-(7-diethylaminocarbonylmethyloxy-5,11-dihydro[1]benzoxepino[2,3-b]pyridin-5-ylidene)propyl]piperidin-4-ol [Example 263] | < 1
17 | 4-(4-Chlorophenyl)-1-[3-(7-dimethylaminocarbonyl-5,11-dihydro[1]benzoxepino[2,3-b]pyridin-5-ylidene)propyl]piperidin-4-ol [Example 198] | < 1

Row | Molecule | IC50 [µM]
18 | 4-(4-Chlorophenyl)-1-[3-(7-dimethylaminocarbonylmethyl-5,11-dihydro[1]benzoxepino[2,3-b]pyridin-5-ylidene)propyl]piperidin-4-ol [Example 122] | < 1
19 | 4-(4-Cyanophenyl)-1-[3-(5,11-dihydro-7-methoxy[1]benzoxepino[2,3-b]pyridin-5-ylidene)propyl]piperidin-4-ol [Example 141] | < 1
20 | 4-(5-Chloro-2-keto-1-benzimidazolinyl)-1-[3-(5,11-dihydro-7-methoxy[1]benzoxepino[2,3-b]pyridin-5-ylidene)propyl]piperidine [Example 85] | < 1
21 | 4-(5-Chloropyridin-2-yl)-1-[3-(5,11-dihydro-7-methoxy[1]benzoxepino[2,3-b]pyridin-5-ylidene)propyl]piperidin-4-ol [Example 83] | < 1000
22 | 4-(7-Chloro-1,2-benzisoxazol-3-yl)-1-[3-(5,11-dihydro-7-methoxy[1]benzoxepino[2,3-b]pyridin-5-ylidene)propyl]piperidine [Example 185] | < 1000
23 | 4-(7-Chloroindol-3-yl)-1-[3-(5,11-dihydro-7-methoxy[1]benzoxepino[2,3-b]pyridin-5-ylidene)propyl]-1,2,3,6-tetrahydropyridine [Example 195] | < 10
24 | 4-(7-Chloroindol-3-yl)-1-[3-(5,11-dihydro-7-methoxy[1]benzoxepino[2,3-b]pyridin-5-ylidene)propyl]piperidine [Example 186] | < 1
25 | 4-(p-Chloroanilino)-1-[3-(5,11-dihydro-7-methoxy[1]benzoxepino[2,3-b]pyridin-5-ylidene)propyl]piperidine [Example 86] | > 10
26 | 4-Azido-4-(4-chlorophenyl)-1-[3-(5,11-dihydro-7-methoxy[1]benzoxepino[2,3-b]pyridin-5-ylidene)propyl]piperidine [Example 187] | < 1
27 | 4-Benzyl-1-[3-(5,11-dihydro-7-methoxy[1]benzoxepino[2,3-b]pyridin-5-ylidene)propyl]piperidin-4-ol [Example 62] | < 10
28 | 4-Cyano-1-[3-(5,11-dihydro-7-methoxy[1]benzoxepino[2,3-b]pyridin-5-ylidene)propyl]-4-phenylpiperidine [Example 63] | < 10
29 | 5-Chloro-1′-[3-(5,11-dihydro-7-(2-methoxyethyl)oxy[1]benzoxepino[2,3-b]pyridin-5-ylidene)propyl]spiro[isobenzofuran-1(3H), 4′-piperidine] [Example 197] | < 1
30 | 5-Chloro-1′-[3-(5,11-dihydro-7-methoxy[1]benzoxepino[2,3-b]pyridin-5-ylidene)propyl]spiro[isobenzofuran-1(3H), 4′-piperidine] [Example 91] | < 1
31 | 8-[3-(5,11-Dihydro-7-methoxy[1]benzoxepino[2,3-b]pyridin-5-ylidene)propyl]-1-phenyl-1,3,8-triazaspiro[4,5]decan-4-one [Example 69] | < 1
32 | CC(C)(O)c1ccc2c(c1)C(=CCCN1CC[C@](O)(c3ccc(Cl)cc3)[C@H](C#N)C1)c1cccnc1CO2 (relative stereo) [Example 479, Trans-4-(4-Chloro-phenyl)-4-hydroxy-1-{3-[7-(1-hydroxyl-1-methyl-ethyl)-11H-10-oxa-1-aza-dibenzo[a,d]cyclohepten-5-ylidene]-propyl}-piperidin-3-carbonitrile] | < 1
33 | CC(C)(O)c1ccc2c(c1)C(=CCCN1CC[C@@](O)(c3ccc(Cl)cc3)[C@H](C#N)C1)c1cccnc1CO2 (relative stereo) [Example 480, Cis-4-(4-Chloro-phenyl)-4-hydroxy-1-{3-[7-(1-hydroxyl-1-methyl-ethyl)-11H-10-oxa-1-aza-dibenzo[a,d]cyclohepten-5-ylidene]-propyl}-piperidin-3-carbonitrile] | < 1

From US8653096B2, “Chemokine receptor antagonists and methods of use thereof” (Millennium Pharmaceuticals, Inc., priority 2001, dated 2014)
